Assay type in all cases: cell-based
The test system of one experiment is SW1990 cells. The experiment is described as follows: Cell count / cell proliferation assay in SW1990 cells. The conditions noted are these: for IC50: cells counted after 48 hours incubation, normalized to controls, read-out: Estimated IC50 values, SW1990; for effect on SW1990 cell numbers / proliferation: in words. The method, then: FIG. 3 depicts the result of cell count assays after two days of incubation with an exemplary compound, Ac4Glc2Bz. The cells treated with the compound are, respectively, SW1990 and PANC-1, which are pancreatic cancer cell lines. Meanwhile, control samples were treated with solvent vehicle of 2.5 μL DMSO per 1 mL of medium.
(§1) FIGS. 5A and 5B show the results of cell toxicity experiments that were conducted on SW1990 and PANC-1 cells with the analogs indicated. Cells were counted after incubation with each analog for 48 hours. Cell counts were then normalized to controls, data was log transformed, and IC50 values were calculated. […]
(§2) Cells were incubated at a range of concentrations of the UAP inhibitors (typically at 0, 10, 25, 50, 100, and 150 μM) and the number of cells were quantified, typically by automated counting (e.g., with a Coulter Counter Z2 instrument) after 1, 2, 3, or 5 days of exposure.

Another experiment relates to PANC-1 cells. The experiment is described as follows: Cell count / cell proliferation assay in PANC-1 cells. The conditions noted are these: for IC50: cells counted after 48 hours incubation, normalized to controls, read-out: Estimated IC50 values, PANC-1; for effect on PANC-1 cell numbers / proliferation: in words. On the procedure: as §1, §2
The subject of experiment [1] is primary human adipose stem cells (hASCs). Briefly: Cell count assay in control cells (human ASCs). The conditions noted are these: Homo sapiens, 48 h; two days of exposure; 300 is the highest concentration tested. The source says: FIG. 4A and FIG. 4B depict histogram results of cell count assays after two days of exposure to each analog in cancer cell lines (SW1990 and PANC-1) and in control cells (human ASCs). […] In all cases, IC50 values were greater than 300 which is the highest concentration tested, for the ACSs, while the Ac4Glc2Bz analogs and Ac4Gal2Bz analogs were effective to reduce cell numbers in both cancer cell lines.

Structures are written as SMILES. Where two headings read alike, the source gives them in different places.

`CC(=O)OC[C@H]1OC(OC(C)=O)[C@H](NC(=O)c2ccccc2O)[C@@H](OC(C)=O)[C@@H]1OC(C)=O` (stereo partly shown) [Ac4Glc2NBz-2-OH]: in the experiment with SW1990 cells, the half-maximal inhibitory concentration (IC50) is 140.3 ± 1.4 µM and the “effect on SW1990 cell numbers / proliferation” value is “consistently reduced cell numbers”. Moreover, in the experiment on PANC-1 cells, the IC50 was 49.9 ± 1.3 µM and the “effect on PANC-1 cell numbers / proliferation” value is recorded as “consistently reduced cell numbers”.
Regarding `CC(=O)OCC1OC(OC(C)=O)[C@@H](NC(=O)C2CCCCC2)[C@@H](OC(C)=O)[C@H]1OC(C)=O` (stereo partly shown) [Ac4GlcNCyx], the 50% inhibitory concentration (IC50) with SW1990 cells (Homo sapiens, SW1990) was 160.9 ± 1.4 µM; in the experiment with PANC-1 cells (Homo sapiens, PANC-1) it was 84.1 ± 1.5 µM.
`CC(=O)OCC1OC(O)[C@@H](NC(=O)c2ccccc2)[C@@H](OC(C)=O)[C@@H]1OC(C)=O` (stereo partly shown) [3,4,6-O—Ac3Glc2Bz]: in the experiment on SW1990 cells, the IC50 is 37.1 ± 1.8 µM and the “effect on SW1990 cell numbers / proliferation” value is recorded as “remarkable inhibition”. The half-inhibitory concentration (IC50) in the experiment with PANC-1 cells is 76.1 ± 1.6 µM.
`CC(=O)OC1OC(CO)C(OC(C)=O)C(OC(C)=O)C1NC(=O)c1ccccc1` (stereo not shown) [1,3,4-O-Ac3Glc2Bz]: the “effect on SW1990 cell numbers / proliferation” value with SW1990 cells is given as “consistently reduced cell numbers”. For the same molecule, the “effect on PANC-1 cell numbers / proliferation” value in the experiment on PANC-1 cells is given as “consistently reduced cell numbers”.
With `CC(=O)OCC1OC(OC(C)=O)[C@H](NC(=O)c2ccccc2)[C@@H](OC(C)=O)[C@H]1OC(C)=O` (stereo partly shown) [Ac4Man2Bz], the 50% inhibitory concentration (IC50) is 148 ± 1.5 µM with SW1990 cells (Homo sapiens, SW1990) and 100 ± 1.8 µM in the experiment with PANC-1 cells (Homo sapiens, PANC-1). Besides, the “effect on SW1990 cell numbers / proliferation” value with SW1990 cells is “substantially low effect”. The “effect on PANC-1 cell numbers / proliferation” value with PANC-1 cells was “substantially low effect”.
Turning to `CC(=O)OCC1OC(OC(C)=O)[C@@H](NC(=O)c2ccccc2)[C@@H](OC(C)=O)[C@H]1OC(C)=O` (stereo partly shown) [Ac4Gal2Bz], the IC50 is over 300 µM in experiment [1]; 39.1 ± 2.2 µM in the experiment with SW1990 cells (Homo sapiens, SW1990); 107 ± 1.1 µM with PANC-1 cells (Homo sapiens, PANC-1). The “effect on SW1990 cell numbers / proliferation” value in the experiment on SW1990 cells is “remarkable inhibition”.

Values taken from US11827663B2, “Use of UAP inhibitors to inhibit flux through the hexosamine biosynthetic pathway” (The Johns Hopkins University, priority 2014, dated 2023).
